Test results from patent US6569897B1, “Alkenyldiarylmethane non-nucleoside HIV-1 reverse transcriptase inhibitors” (priority 1998, dated 2003).
Read-outs that look alike come from different tables or passages of the source.

Experiments:
HIV-1RF in CEM-SS cells [1] = assay: microbe, parasite or virus in culture; conditions: Human immunodeficiency virus 1, CEM-SS, read-out: EC50 (μM), 50% inhibitory concentration for cytopathicity
in vitro = conditions: human, uninfected (mock-infected) CEM-SS cells
HIV-1RF in CEM-SS cells [2] = tested on: HIV-1RF in CEM-SS cells
[3] = tested on: 129/Cost isolate, RT K103N; format: cell-based, HIV-1
HIV-1 NL4-3, RT Y188C = format: cell-based
HIV-1 Clade D in PBMC = assay: microbe, parasite or virus in culture; format: cell-based; conditions: Human immunodeficiency virus 1, PBMC
HIV-1 Ba-L in Mono/Mac = assay: microbe, parasite or virus in culture; format: cell-based; conditions: Human immunodeficiency virus 1, BAL
HIV-1 NL4-3, RT A98G = format: cell-based
HIV-1 NL4-3, RT K101E = format: cell-based
HIV-1 RF in CEM-SS = assay: microbe, parasite or virus in culture; format: cell-based; conditions: Human immunodeficiency virus 1, CEM-SS
HIV-1 Clade A in PBMC = assay: microbe, parasite or virus in culture; format: cell-based; conditions: Human immunodeficiency virus 1, PBMC
HIV-1 NL4-3 Wildtype = assay: microbe, parasite or virus in culture; format: cell-based; conditions: Human immunodeficiency virus 1, NL43, CEM-SS
HIV-1 TEKI in PBMC = assay: microbe, parasite or virus in culture; format: cell-based; conditions: Human immunodeficiency virus 1, PBMC
HIV-1 IIIB Wild Type = assay: microbe, parasite or virus in culture; format: cell-based; conditions: Human immunodeficiency virus 1, IIIB
HIV-1 NL4-3, RT L74V = format: cell-based
HIV-1 Clade B in PBMC = assay: microbe, parasite or virus in culture; format: cell-based; conditions: Human immunodeficiency virus 1, PBMC
HIV-1 NL4-3, RT V108I = format: cell-based
HIV-1 IIIB in CEM-SS = assay: microbe, parasite or virus in culture; format: cell-based; conditions: Human immunodeficiency virus 1, IIIB
HIV-1 Clade E in PBMC = assay: microbe, parasite or virus in culture; format: cell-based; conditions: Human immunodeficiency virus 1, PBMC
HIV-I Clade F in PBMC = assay: microbe, parasite or virus in culture; format: cell-based; conditions: Human immunodeficiency virus 1, PBMC
3TC isolate, RT M184I = format: cell-based
HIV-1 Clade C in PBMC = assay: microbe, parasite or virus in culture; format: cell-based; conditions: Human immunodeficiency virus 1, PBMC
HIV-1 NL4-3, RT V106A = format: cell-based
HIV-1 ROJO in PBMC = assay: microbe, parasite or virus in culture; format: cell-based; conditions: Human immunodeficiency virus 1, PBMC
HIV-1RF in CEM-SS cells [4] = conditions: reported previously; cited from earlier work

## C=C(c1cc(Br)c(OC)c(C(=O)OC)c1)c1cc(Br)c(OC)c(C(=O)OC)c1 [Compound 3, 3′,3″-Dibromo-4′,4″-dimethoxy-5′,5″-bis(methoxycarbonyl)-1,1-diphenylethene]
other
  melting point: 144 to 145 °C
HIV-1RF in CEM-SS cells [1]
  EC50: > 6.9 µM
In vitro
  CC50: 316 µM

## CC=C(c1cc(Br)c(OC)c(C(=O)OC)c1)c1cc(Br)c(OC)c(C(=O)OC)c1 [Compound 4, 3′,3″-Dibromo-4′,4″-dimethoxy-5′,5″-bis(methoxycarbonyl)-1,1-diphenylpropene]
HIV-1RF in CEM-SS cells [1]
  EC50: > 6.9 µM
In vitro
  CC50: 10 µM

## COC=C(c1cc(Br)c(OC)c(C(=O)OC)c1)c1cc(Br)c(OC)c(C(=O)OC)c1 [Compound 5, 3′,3″-Dibromo-4′,4″-dimethoxy-5′,5″-bis(methoxycarbonyl)-1-methoxy-2,2-diphenylethene]
HIV-1RF in CEM-SS cells [1]
  EC50: > 6.9 µM
In vitro
  CC50: 22 µM

## COC(=O)c1cc(C(=CCCO)c2cc(Br)c(OC)c(C(=O)OC)c2)cc(Br)c1OC [Compound 7, 3′,3″-Dibromo-4-hydroxy-4′,4″dimethoxy-5′,5″-bis(methoxycarbony)-1,1-diphenyl-1-butene]
HIV-1RF in CEM-SS cells [2]; HIV-1RF, CEM-SS cells
  TI, therapeutic index (CC50 divided by EC50): >52
HIV-1RF in CEM-SS cells [1]
  EC50: 6 µM
In vitro
  CC50: > 316 µM

## COC(=O)c1cc(C(=CCCN=[N+]=[N-])c2cc(Br)c(OC)c(C(=O)OC)c2)cc(Br)c1OC [Compound 9, 4-Azido-3′,3″-Dibromo-4′,4″dimethoxy-5′,5″-bis(methoxycarbony)-1,1-diphenyl-1-butene]
HIV-1RF in CEM-SS cells [2]; HIV-1RF, CEM-SS cells
  TI, therapeutic index (CC50 divided by EC50): >278
HIV-1RF in CEM-SS cells [1]
  EC50: 1.1 µM
In vitro
  CC50: > 316 µM

## CCCCCC1OC1(c1cc(Br)c(OC)c(C(=O)OC)c1)c1cc(Br)c(OC)c(C(=O)OC)c1 (centres unmarked) [Compound 12, 3′,3″-Dibromo-4′,4″-dimethoxy-5′,5″-bis(methoxycarbonyl)-1,1,-diphenyl-1-heptene Epoxide]
HIV-1RF in CEM-SS cells [1]
  EC50: > 6.9 µM
In vitro
  CC50: > 100 µM

## COC(=O)c1cc(C(=CC(=O)O)c2cc(Cl)c(OC)c(C(=O)OC)c2)cc(Cl)c1OC [Compound 14, 3′,3″-Dichloro-4′,4″-dimethoxy-5′,5″-bis(methoxycarbonyl)-3,3-diphenylpropenoic Acid]
HIV-1RF in CEM-SS cells [1]
  EC50: > 6.9 µM
In vitro
  CC50: 48 µM

## COC(=O)C=C(c1cc(Cl)c(OC)c(C(=O)OC)c1)c1cc(Cl)c(OC)c(C(=O)OC)c1 [Compound 15, Methyl 3′,3″-Dichloro-4′,4″-dimethoxy-5,5Δ-bis(methoxycarbonyl)-3,3-diphenylpropenoate]
HIV-1RF in CEM-SS cells [1]
  EC50: > 6.9 µM
In vitro
  CC50: 25 µM

## COC(=O)c1cc(C(=CC(=O)OC(C)(C)C)c2cc(Cl)c(OC)c(C(=O)OC)c2)cc(Cl)c1OC [Compound 16, tert-Butyl 3′,3″-Dichloro-4′,4″-dimethoxy-5,5″-bis(methoxycarbonyl)3,3-diphenylpropenoate]
HIV-1RF in CEM-SS cells [1]
  EC50: > 6.9 µM
In vitro
  CC50: > 100 µM

## COC(=O)c1cc(C(=CCCO)c2cc(Cl)c(OC)c(C(=O)OC)c2)cc(Cl)c1OC [Compound 18, 3′,3″-Dichloro-4-hydroxy-4′,4″dimethoxy-5′,5″-bis(methoxycarbony)-1,1-diphenyl-1-butene]
HIV-1RF in CEM-SS cells [2]; HIV-1RF, CEM-SS cells
  TI, therapeutic index (CC50 divided by EC50): 2
HIV-1RF in CEM-SS cells [1]
  EC50: 8.6 µM
In vitro
  CC50: 16.8 µM

## COC(=O)c1cc(C(=CCCOS(C)(=O)=O)c2cc(Cl)c(OC)c(C(=O)OC)c2)cc(Cl)c1OC [Compound 19, 3′,3″-Dichloro-4-methanesulfonyloxy-4′,4″dimethoxy-5′,5′-bis(methoxycarbony)-1,1-diphenyl-1-butene]
HIV-1RF in CEM-SS cells [1]
  EC50: > 6.9 µM
In vitro
  CC50: 6.9 µM

## COC(=O)c1cc(C(=CCCN=[N+]=[N-])c2cc(Cl)c(OC)c(C(=O)OC)c2)cc(Cl)c1OC [Compound 20, 4-Azido-3′,3″-Dichloro-4′,4″dimethoxy-5′,5′-bis(methoxycarbony)-1,1-diphenyl-1-butene]
HIV-1RF in CEM-SS cells [2]
  TI, therapeutic index (CC50 divided by EC50): 155
HIV-1RF in CEM-SS cells [2]; inhibition of viral cytopathicity
  potency relative to the bromo azide 9: four times more potent
HIV-1RF in CEM-SS cells [1]
  EC50: 0.27 µM
In vitro
  CC50: 41.8 µM

## COC(=O)c1cc(C(=CCCN)c2cc(Cl)c(OC)c(C(=O)OC)c2)cc(Cl)c1OC [Compound 21, 4-Amino-3′,3″-Dichloro-4′,4″dimethoxy-5′,5″-bis(methoxycarbony)-1,1-diphenyl-1-butene]
HIV-1RF in CEM-SS cells [2]; HIV-1RF in CEM-SS cells
  inhibition of HIV-1 cytopathic effect (in words): no detectable inhibitory cytopathic effect was detected
HIV-1RF in CEM-SS cells [2]; at 100 μM
  inhibition of HIV-1 cytopathic effect (in words): inactive
HIV-1RF in CEM-SS cells [1]
  EC50: > 6.9 µM
In vitro
  CC50: 15 µM

## COC(=O)CCCC=C(c1cc(Cl)c(OC)c(C(=O)OC)c1)c1cc(Cl)c(OC)c(C(=O)OC)c1 [Compound 22, Methyl 3′,3″-Dichloro-4′,4″-dimethoxy-5,5″-bis(methoxycarbonyl)-6,6-diphenylhexenoate]
[3]
  EC50: 10.8 µM
HIV-1 NL4-3, RT Y188C
  EC50: 10.8 µM
HIV-1 Clade D in PBMC
  EC50: 1.02 µM
HIV-1 Ba-L in Mono/Mac
  EC50: 0.36 µM
HIV-1 NL4-3, RT A98G
  EC50: 0.84 µM
HIV-1 NL4-3, RT K101E
  EC50: 3.05 µM
HIV-1 RF in CEM-SS
  EC50: 0.91 µM
HIV-1 Clade A in PBMC
  EC50: 1.09 µM
HIV-1 NL4-3 Wildtype
  EC50: 1.78 µM
HIV-1 TEKI in PBMC
  EC50: 2.2 µM
HIV-1 IIIB Wild Type
  EC50: 0.39 µM
HIV-1 NL4-3, RT L74V
  EC50: 2.23 µM
HIV-1 Clade B in PBMC
  EC50: 0.43 µM
HIV-1 NL4-3, RT V108I
  EC50: 12 µM
HIV-1 IIIB in CEM-SS
  EC50: 0.16 µM
HIV-1 Clade E in PBMC
  EC50: 0.4 µM
HIV-I Clade F in PBMC
  EC50: 1.7 µM
3TC isolate, RT M184I
  EC50: 1.08 µM
HIV-1RF in CEM-SS cells [1]
  EC50: 0.013 µM
In vitro
  CC50: 31.6 µM
HIV-1 Clade C in PBMC
  EC50: 1.04 µM
HIV-1 NL4-3, RT V106A
  EC50: 12.7 µM
HIV-1 ROJO in PBMC
  EC50: 2.28 µM

## COc1c(Cl)cc(C(=CCC(=O)O)c2cc(Cl)c(OC)c(C(=O)O)c2)cc1C(=O)O [Compound 23, 3′,3″-Dichloro-4′,4″-dimethoxy-5′,5″-bis(carboxy)-4,4-diphenyl-3-butenoic Acid]
HIV-1RF in CEM-SS cells [1]
  EC50: > 6.9 µM
In vitro
  CC50: > 316 µM

## CC1(C)OC(=O)c2cc(C(=CCCO)c3cc(Cl)c4c(c3)C(=O)OC(C)(C)O4)cc(Cl)c2O1 [Compound 30]
HIV-1RF in CEM-SS cells [2]; HIV-1RF in CEM-SS cells
  inhibition of HIV-1 cytopathic effect (in words): inactive
HIV-1RF in CEM-SS cells [1]
  EC50: > 6.9 µM
In vitro
  CC50: 18.8 µM

## CC1(C)OC(=O)c2cc(C(=CCCBr)c3cc(Cl)c4c(c3)C(=O)OC(C)(C)O4)cc(Cl)c2O1 [Compound 31, 1-Bromo-4,4-bis(8′,8″-dichloro-2′,2′,2″,2″-tetramethyl-4′,4″-dioxo-6′,6″-0(1,3-benzodioxyl)]-3-butene]
HIV-1RF in CEM-SS cells [2]; HIV-1RF in CEM-SS cells
  inhibition of HIV-1 cytopathic effect (in words): inactive
HIV-1RF in CEM-SS cells [1]
  EC50: > 6.9 µM
In vitro
  CC50: 176 µM

## CCCCCC=C(c1ccc(OC)c(C(=O)OC)c1)c1ccc(OC)c(C(=O)OC)c1 [Compound 36, 4′,4″-Dimethoxy-3′,3″-bis(methoxycarbonyl)-1,1-diphenyl-1-heptene]
HIV-1RF in CEM-SS cells [1]
  EC50: > 6.9 µM
In vitro
  CC50: 14 µM

## CCCCCC=C(c1cc(I)c(OC)c(C(=O)OC)c1)c1cc(I)c(OC)c(C(=O)OC)c1 [Compound 40, 3′,3″-Diiodo-4′,4″-Dimethoxy-5′,5″-bis(methoxycarbonyl)-1,1-diphenyl-1-heptene]
HIV-1RF in CEM-SS cells [2]; HIV-1RF in CEM-SS cells
  inhibition of HIV-1 cytopathic effect (in words): inactivity
HIV-1RF in CEM-SS cells [1]
  EC50: > 6.9 µM
In vitro
  CC50: > 316 µM

## CCCCCC=C(c1cc(Cl)c(OC)c(C(=O)OC)c1)c1cc(Cl)c(OC)c(C(=O)OC)c1 [Compound 41]
HIV-1RF in CEM-SS cells [4]
  potency relative to 1: approximately half as potent as 1
